Key:
[1] = Solubility of compound in acetonitrile/water; type: physicochemical
[2] = Stability of compound assessed as compound degradation under dark condition measured after 20 days by 1H-NMR analysis; type: physicochemical; conditions: time 20 day; read-out: Drug degradation

C=CCCCCCCCCOC(=O)/C=C/c1cccc(C(C)(C)C)c1O
solubility [1]: Soluble | degraded at 480 h [2]: 6%

— ChEMBL document CHEMBL5131508, “Photoactivatable o-Hydroxycinnamic Platforms for Bioimaging and Therapeutic Release” (J Med Chem, 2022)
